Experimental data as given in patent US20120214847A1, “2-[1-PHENYL-5-HYDROXY-4a-SUBSTITUTED-HEXAHYDROCYCLOPENTA[F]INDAZOL-5-YL]ETHYL PHENYL DERIVATIVES AS GLUCOCORTICOID RECEPTOR LIGANDS” (Merck Sharp & Dohme Corp., priority 2009, published 2012).

Molecular target: T1, human GR (Homo sapiens, UniProt P04150)
T1 construct: naturally expresses the human GR; endogenous in cells
T1 sequence (P04150 1-777): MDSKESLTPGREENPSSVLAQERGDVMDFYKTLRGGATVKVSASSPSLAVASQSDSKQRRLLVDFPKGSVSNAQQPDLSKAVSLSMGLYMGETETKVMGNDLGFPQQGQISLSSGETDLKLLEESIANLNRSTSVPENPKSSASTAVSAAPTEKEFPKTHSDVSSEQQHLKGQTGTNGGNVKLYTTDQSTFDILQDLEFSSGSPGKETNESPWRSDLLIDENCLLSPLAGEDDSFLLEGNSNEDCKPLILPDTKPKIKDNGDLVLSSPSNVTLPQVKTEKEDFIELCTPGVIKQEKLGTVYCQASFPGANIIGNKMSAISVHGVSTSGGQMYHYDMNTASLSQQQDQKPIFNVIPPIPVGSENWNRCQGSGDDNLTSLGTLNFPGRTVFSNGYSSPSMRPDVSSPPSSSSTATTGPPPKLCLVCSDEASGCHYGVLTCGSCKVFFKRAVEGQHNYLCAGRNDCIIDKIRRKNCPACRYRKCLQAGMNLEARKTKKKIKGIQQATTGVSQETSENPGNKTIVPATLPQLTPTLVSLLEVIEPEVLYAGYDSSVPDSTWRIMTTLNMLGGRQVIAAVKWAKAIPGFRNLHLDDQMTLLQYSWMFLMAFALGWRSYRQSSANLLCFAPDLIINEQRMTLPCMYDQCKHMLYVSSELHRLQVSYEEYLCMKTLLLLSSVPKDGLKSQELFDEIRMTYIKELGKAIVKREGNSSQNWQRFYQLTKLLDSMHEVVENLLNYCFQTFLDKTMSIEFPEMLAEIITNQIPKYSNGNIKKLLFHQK
Assay: Transrepression assay (GITAR), TNFα-β-lactamase reporter in U937 cells
Assay type: cell-based
Conditions: for EC50: IP = inflection point; for Emax: U-937, U937 cells
Excerpt: Transrepression Assay (GITAR)
This assay assesses the ability of test compounds to control transcription from the TNFα-β-lactamase reporter gene in U937 cells, a human myelomonocytic leukemia cell line that naturally expresses the human GR. The assay measures compound dependent-repression of the TNFa promoter linked to a reporter gene.
The human U937 cells that had been stablely transfected with the TNF-a promoter driving ˜-lactamase are used for this assay. U937 cells contain an endogenous glucocorticoid receptor (GR). Cells are maintained in RPMI 1640 Growth medium (GibcoCat#11875-093) containing 25 mM HEPES, 10% FBS, 2 mM L-Glutamine, 1 mM Sodium pyruvate, 25 μg/ml Gentamicin (Gibed Cat#1571 0-064), 1:1000 2-Mercaptoethanol (Gibco Cat#21985-023) and 0.8 mg/ml G418 (Gibco Cat#10131-027). The density of the cells in the flask needs to be about 1×10^6-3×10^6/ml at the time of harvest. Usually, the cells are split to 1.2˜1.4×10^5/ml (1:10) 3 days prior to the assay. 50,000 cells/well are plated in 96 well black-walled plates the day of assay. Test compounds are added 10 J.lL/well, and cells are incubated at 37° C. for 30˜45 min. For assaying compounds, first dilute 1:10 in DMSO to make 1 mM, then further dilute 1:100 in medium to make 10× stock prior to adding to the cells. Add 50 ng/ml PMA (Sigma, cat#P8139) 10 μL/well to a final concentration 5 ng/ml, and 1 μg/ml LPS (Sigma, cat#L4130) 10 μL/well to a final concentration 100 ng/ml. Incubate cells at 370 C overnight for −18 hr. PMA is stored frozen as […] in DMSO. Dilute 1:10 in DMSO for a working stock of 10 μg/ml and store at −20° C. For assaying, dilute the 10 μg/ml working stock 1:200 in medium to make a 10× solution (50 ng/ml). Store frozen LPS at 1 mg/ml in PBS, dilute 1:1000 in medium to make 10×μg/ml) for the assay. Add 6× loading buffer (CCF2-AM) 20 μL/well, and incubate at room temperature for 70-90 min. […] The activity repressed by 100 nM dexamethasone alone is set as 100% activity.

[1] = activity repressed by 100 nM dexamethasone alone set as 100%

SMILES	EC50 (U937 cells)	Emax [1]	Transrepression U937 Cells GITAR Emax (%) (U937 cells, activity repressed by 100 nM dexamethasone alone set as 100%)
CC[C@]12Cc3cnn(-c4ccc(F)cc4)c3C=C1CC[C@@]2(O)CCc1cncc(F)c1 [Example 21, (4aS,5R)-4a-Ethyl-1-(4-fluorophenyl)-5-[2-(5-fluoropyridin-3-yl)ethyl]-1,4,4a,5,6,7-hexahydrocyclopenta[f]indazol-5-ol]	95 nM	87%	–
CC[C@]12Cc3cnn(-c4ccc(F)cc4)c3C=C1CC[C@@]2(O)CCc1ccccc1CCC(N)=O [Example 22, 3-(2-{2-[(4aS,5R)-4a-Ethyl-1-(4-fluorophenyl)-5-hydroxy-1,4,4a,5,6,7-hexahydrocyclopenta[f]indazol-5-yl]ethyl}phenyl)propanamide]	148 nM	89%	–
NC(=O)c1ccccc1CC[C@]1(O)CCC2=Cc3c(cnn3-c3ccc(F)cc3)C[C@@]21C1CC1 [Example 23, 2-{2-[(4aR,5R)-4a-Cyclopropyl-1-(4-fluorophenyl)-5-hydroxy-1,4,4a,5,6,7-hexahydrocyclopenta[f]indazol-5-yl]ethyl}benzamide]	22 nM	77%	–
NS(=O)(=O)c1ccccc1CC[C@]1(O)CCC2=Cc3c(cnn3-c3cccnc3)C[C@@]21C1CC1 [Example 24, 2-{2-[(4aR,5R)-4a-Cyclopropyl-5-hydroxy-1-(pyridin-3-yl)-1,4,4a,5,6,7-hexahydrocyclopenta[f]indazol-5-yl]ethyl}benzenesulfonamide]	7 nM	83%	–
CC[C@]12Cc3cnn(-c4ccc(F)cc4)c3C=C1CC[C@@]2(O)CCc1ccccc1C(O)C(N)=O (stereo partly drawn) [Example 25, 2-(2-{2-[(4aS,5R)-4a-Ethyl-1-(4-fluorophenyl)-5-hydroxy-1,4,4a,5,6,7-hexahydrocyclopenta[f]indazol-5-yl]ethyl}phenyl)-2-hydroxyacetamide]	118 nM	74%	–
CC[C@]12Cc3cnn(-c4ccc(F)cc4)c3C=C1CC[C@@]2(O)CCc1ccccc1C(O)C(N)=O (stereo partly drawn) [Example 26, 2-(2-{2-[(4aS,5R)-4a-Ethyl-1-(4-fluorophenyl)-5-hydroxy-1,4,4a,5,6,7-hexahydrocyclopenta[f]indazol-5-yl]ethyl}phenyl)-2-hydroxyacetamide]	51 nM	–	86%
N#Cc1ccccc1CC[C@]1(O)CCC2=Cc3c(cnn3-c3ccccc3)C[C@@]21C1CC1 [Example 27, 2-{2-[(4aR,5R)-4a-Cyclopropyl-5-hydroxy-1-phenyl-1,4,4a,5,6,7-hexahydrocyclopenta[f]indazol-5-yl]ethyl}benzonitrile]	51 nM	86%	–
N#Cc1c(F)cccc1CC[C@]1(O)CCC2=Cc3c(cnn3-c3ccccc3)C[C@@]21C1CC1 [Example 28, 2-{2-[(4aR,5R)-4a-Cyclopropyl-5-hydroxy-1-phenyl-1,4,4a,5,6,7-hexahydrocyclopenta[f]indazol-5-yl]ethyl}-6-fluorobenzonitrile]	122 nM	88%	–
NC(=O)c1ccccc1CC[C@]1(O)CCC2=Cc3c(cnn3-c3ccccc3)C[C@@]21C1CC1 [Example 29, 2-{2-[(4aR,5R)-4a-Cyclopropyl-5-hydroxy-1-phenyl-1,4,4a,5,6,7-hexahydrocyclopenta[f]indazol-5-yl]ethyl}benzamide]	47 nM	69%	–
N#Cc1ccccc1CC[C@]1(O)CCC2=Cc3c(cnn3-c3cccnc3)C[C@@]21C1CC1 [Example 30, 2-{2-[(4aR,5R)-4a-Cyclopropyl-5-hydroxy-1-(pyridin-3-yl)-1,4,4a,5,6,7-hexahydrocyclopenta[f]indazol-5-yl]ethyl}benzonitrile]	178 nM	63%	–
N#Cc1cccnc1CC[C@]1(O)CCC2=Cc3c(cnn3-c3ccc(F)cc3)C[C@@]21C1CC1 [Example 31, 2-{2-[(4aR,5R)-4a-Cyclopropyl-1-(4-fluorophenyl)-5-hydroxy-1,4,4a,5,6,7-hexahydrocyclopenta[f]indazol-5-yl]ethyl}pyridine-3-carbonitrile]	13 nM	89%	–
O[C@@]1(CCc2cc(C(F)(F)F)ccn2)CCC2=Cc3c(cnn3-c3ccc(F)cc3)C[C@@]21C1CC1 [Example 32, (4aR,5R)-4a-Cyclopropyl-1-(4-fluorophenyl)-5-{2-[4-(trifluoromethyl)pyridin-2-yl]ethyl}-1,4,4a,5,6,7-hexahydrocyclopenta[f]indazol-5-ol]	266 nM	83%	–
CC[C@]12Cc3cnn(-c4ccc(F)cc4)c3C=C1CC[C@@]2(O)CCc1cc(C)ccn1 [Example 33, (4aS,5R)-4a-Ethyl-1-(4-fluorophenyl)-5-[2-(4-methylpyridin-2-yl)ethyl]-1,4,4a,5,6,7-hexahydrocyclopenta[f]indazol-5-ol]	84 nM	82%	–
CC[C@]12Cc3cnn(-c4ccc(F)cc4)c3C=C1CC[C@@]2(O)CCc1cc(C(F)(F)F)ccn1 [Example 34, (4aS,5R)-4a-Ethyl-1-(4-fluorophenyl)-5-{2-[4-(trifluoromethyl)pyridin-2-yl]ethyl}-1,4,4a,5,6,7-hexahydrocyclopenta[f]indazol-5-ol]	125 nM	85%	–
N#Cc1ccnc(CC[C@]2(O)CCC3=Cc4c(cnn4-c4ccc(F)cc4)C[C@@]32C2CC2)c1 [Example 35, 2-{2-[(4aR,5R)-4a-Cyclopropyl-1-(4-fluorophenyl)-5-hydroxy-1,4,4a,5,6,7-hexahydrocyclopenta[f]indazol-5-yl]ethyl}pyridine-4-carbonitrile]	73 nM	87%	–
Cc1ccnc(CC[C@]2(O)CCC3=Cc4c(cnn4-c4ccc(F)cc4)C[C@@]32C2CC2)c1 [Example 36, (4aR,5R)-4a-Cyclopropyl-1-(4-fluorophenyl)-5-[2-(4-methylpyridin-2-yl)ethyl]-1,4,4a,5,6,7-hexahydrocyclopenta[f]indazol-5-ol]	114 nM	72%	–
CC[C@]12Cc3cnn(-c4ccc(F)cc4)c3C=C1CC[C@@]2(O)CCc1cccc(OC)c1C(N)=O [Example 37, 2-{2-[(4aS,5R)-4a-Ethyl-1-(4-fluorophenyl)-5-hydroxy-1,4,4a,5,6,7-hexahydrocyclopenta[f]indazol-5-yl]ethyl}-6-methoxybenzamide]	8 nM	90%	–
COc1cccc(CC[C@]2(O)CCC3=Cc4c(cnn4-c4ccc(F)cc4)C[C@@]32C2CC2)c1C(N)=O [Example 38, 2-{2-[(4aR,5R)-4a-Cyclopropyl-1-(4-fluorophenyl)-5-hydroxy-1,4,4a,5,6,7-hexahydrocyclopenta[f]indazol-5-yl]ethyl}-6-methoxybenzamide]	11 nM	74%	–
NC(=O)c1cc(F)ccc1CC[C@]1(O)CCC2=Cc3c(cnn3-c3ccc(F)cc3)C[C@@]21C1CC1 [Example 39, 2-{2-[(4aR,5R)-4a-Cyclopropyl-1-(4-fluorophenyl)-5-hydroxy-1,4,4a,5,6,7-hexahydrocyclopenta[f]indazol-5-yl]ethyl}-5-fluorobenzamide]	83 nM	71%	–
CC[C@]12Cc3cnn(-c4ccc(F)cc4)c3C=C1CC[C@@]2(O)CCc1ccccc1S(=O)(=O)C(C)C [Example 40, (4aS,5R)-4a-Ethyl-1-(4-fluorophenyl)-5-{2-[2-(propan-2-ylsulfonyl)phenyl]ethyl}-1,4,4a,5,6,7-hexahydrocyclopenta[f]indazol-5-ol]	38 nM	83%	–
